Experimental data from PMC5131915, “Platinum(II) Iodido Complexes of 7-Azaindoles with Significant Antiproliferative Effects: An Old Story Revisited with Unexpected Outcomes” (PLoS ONE, 2016).

How the values were obtained:
[1] = system: cisplatin-resistant HCT116 colon cancer cell line; design: method as in PMID 26226326; conditions: cited from earlier work
A2780 cells = assay: Cellular accumulation of platinum (ICP-MS); type: cell-based, human; conditions: 24 h treatment at IC50 concentration
Experimental: The A2780 cells were seeded in 6-well culture plates (1×10^6 cells per well) and incubated overnight (37°C and 5% CO2 in a humidified incubator). […] The cells were washed with PBS (2 × 2 mL) after 24 h treatment, harvested by trypsin treatment, collected and centrifuged in PBS. The supernatants were discarded after centrifugation and pellets were digested in 500 μL of nitric acid (3 min at 150°C) using a microwave system Monowave300 (Anton Paar). Solutions were diluted with 4.5 mL of water and the platinum content was determined by ICP-MS. The obtained values were corrected for adsorption effects. The experiments were conducted in triplicate and the results are presented as arithmetic mean±SD.

[2] = system: cisplatin-sensitive HCT116 colon cancer cell line; design: method as in PMID 26226326; conditions: cited from earlier work
[3] = system: Caco-2 colorectal carcinoma cells; assay: In vitro cytotoxicity testing (MTT assay), Caco-2; type: cell-based, human; conditions: for IC50: 24 h drug exposure, no recovery, MTT, read-out: IC50±SD, Caco-2; for selectivity factor IC50(Hep)/IC50(cancer cell line): Caco-2
Experimental: All cell lines were grown as adherent monolayers at 37°C and 5% CO2 in a humidified atmosphere.
The MTT assay was used to determine the cell viability; MTT = 3-(4,5-dimethylthiazol-2-yl)-2,5-diphenyltetrazolium bromide. A concentration of the formed dye was evaluated spectrophotometrically at 540 nm (TECAN, Schoeller Instruments LLC).
The data were expressed as the percentage of viability, where 100% and 0% represents the treatments with negative and positive controls, respectively. The data from the cancer cells were acquired from three independent experiments (conducted in triplicate) using cells from different passages. The resulting IC50 values (μM) were calculated from viability curves and the results are presented as arithmetic mean±SD.

[4] = Hydrophobicity studies (logP determination), octanol/water, ICP-MS; type: physicochemical; conditions: octanol/water (0.2 M KI)
Experimental: Complexes 4 and 6 (1 mmol) were ultrasonicated for 15 min in 10 mL of OSW, centrifuged and supernatants were collected. Aliquots (5 mL) of the obtained OSW solutions of complexes 4 and 6 were added to WSO (5 mL) and shaken for 2 h at ambient temperature. After that, the mixtures were centrifuged and aqueous layer was separated carefully. The platinum concentration was determined from OSW aliquots taken before ([Pt]OSWb) and after ([Pt]OSWa) partition by ICP-MS (ICP-MS spectrometer 7700x, Agilent) with the obtained values corrected for the adsorption effects. logP = log([Pt]WSO/[Pt]OSWa) equation was used for the partition coefficients calculation; [Pt]WSO = [Pt]OSWb−[Pt]OSWa. The experiments were conducted in triplicate.

[5] = Hydrolytic stability by 1H NMR; type: physicochemical; conditions: 20% DMF-d7/80% D2O, after 48 h

SMILES	IC50 [1]	cellular accumulation (A2780 cells)	IC50 [2]	IC50 [3]	selectivity factor IC50(Hep)/IC50(cancer cell line) [3]	logP [4]	fraction of complex hydrolyzed [5]
N.N.[Cl][Pt][Cl] [Cisplatin, cisplatin, reference compound]	22 µM	535±16 pmol Pt/10^6 A2780 cells	7.6 µM				
Cc1cc2c(Cl)cc[n+]([Pt-2]([I])([I])[n+]3ccc(Cl)c4cc(C)[nH]c43)c2[nH]1 [Complex 8, cis-[PtI2(2Me4Claza)2]]				0.4 ± 0.2 µM	~24		
Brc1cc[n+]([Pt-2]([I])([I])[n+]2ccc(Br)c3cc[nH]c32)c2[nH]ccc12 [Complex 6, cis-[Pt(4Braza)2I2]]		598±97 pmol Pt/10^6 A2780 cells		0.4 ± 0.3 µM	~10	–0.07	~10%
